# In patent publication US20130071931A1, “PROCESS FOR HEPATIC DIFFERENTIATION FROM INDUCED HEPATIC STEM CELLS, AND INDUCED HEPATIC PROGENITOR CELLS DIFFERENTIATED THEREBY” (NATIONAL CANCER CENTER, priority 2011, published 2013):
# What was measured:
# [1] = system: human induced hepatic stem cells AFB1-1; assay: AFP in culture supernatant, hepatic differentiation on Matrigel (Examples 2-4); details: no feeder cells, 13 days after seeding
# [2] = system: extracellular signal regulated kinase; details: cited from earlier work
# [3] = system: type I receptor for the osteogenic factor; details: cited from earlier work
# ALK 4 = details: cited from earlier work
# [4] = system: phosphorylation of Smad2/3; details: cited from earlier work
# [5] = system: TGF-β induced epithelial-mesenchymal transformation; details: cited from earlier work
# [6] = system: human induced hepatic stem cells AFB1-1; assay: Quantitative RT-PCR of marker genes, hepatic differentiation on Matrigel (Examples 2-4); assay type: cell-based; details: no feeder cells, 13 days, No. 377 taken as 1
# p38 MAP kinase = details: cited from earlier work
# [7] = system: human induced hepatic stem cells AFB 1-1; assay: AFP in culture supernatant, suspension (three-dimensional) culture (Examples 6-10); assay type: cell-based; details: cell samples Nos. 473-475: suspension culture, ReproStem (bFGF-free)/Y-27632 5 μM, low-attachment plate, no feeder cells, 7 days after seeding; A-83-01 0.1 μM, OsM 10 ng/mL, DEX 0.1 μM where present
# Method: The cell pellets were lysed in 1 mL/well of a QIAzol reagent (refer to Table 8B).
# Six days after the seeding, the cells were recovered centrifugally and then suspended in 2 mL of a fresh ReproStem (bFGF-free)/Y-27632 (5 μM) supplemented with 10 ng/mL oncostatin M (OsM) and 0.1 μM dexamethasone (DEX), to continue hepatic differentiation culture in the above culture plate. […] The cell pellets were lysed in 1 mL/well of a QIAzol reagent (refer to Table 8B).
# [8] = system: human induced hepatic stem cells AFB1-1; assay: AFP in culture supernatant, collagen coat (Example 19); assay type: cell-based; details: no feeder cells
# [9] = system: human induced hepatic stem cells AFB1-1; assay: Quantitative RT-PCR, differentiation with TGF-β signaling inhibitors (Example 12); assay type: cell-based; details: cell samples Nos. 1545-1549: 0.5 μM inhibitor in ReproStem (bFGF-free), no feeder cells, Matrigel, 13 days after seeding
# Method: The resultant cell samples are respectively referred to as “Nos. 1545-1549”. No. 1544 was cultured in the absence of any inhibitor. Nos. 1545-1549 were cultured in the presence of the following inhibitors, respectively.
# Thirteen days after the seeding, the cells were lysed in 1 mL/well of a QIAzol reagent to prepare the total RNA from the cell lysate using the miRNeasy Mini Kit (Qiagen). The total RNA was subjected to quantitative RT-PCR using the iScript Advanced cDNA synthesis kit, the SsoAdvanced SYBR Green Supremix ([…]), and the CFX96 Real-Time System C1000 Thermal Cycler, all manufactured by Bio-Rad. The quantified genes were ALB, AAT, TTR, AFP, cytokeratin 7 (KRT7), cytokeratin 19 (KRT19), and DLK1 (Delta-like 1 homolog).
# [10] = system: human induced hepatic stem cells AFB1-1; assay: AFP in culture supernatant (Example 13); assay type: cell-based; details: cell sample No. 835: 0.5 μM A-83-01/ReproStem (bFGF-free), no feeder cells, Matrigel
# Source text: The medium was replaced everyday with a fresh human ES/iPS cell medium (mTeSR1) to continue culture until reaching 50-80% confluence per dish. […] The resultant cell sample is referred to as “No. 835”.
# [11] = system: human induced hepatic stem cells AFB1-1; assay: AFP in culture supernatant (Example 18); assay type: cell-based; details: cell sample No. 705: A-83-01 (0.5 μM at start, 0.1 μM at medium changes)/ReproStem (bFGF-free), no feeder cells, Matrigel
# rat iPS cells = details: added to a rat iPS cell culture medium; cited from earlier work
# [12] = cell sample No. 393: 0.1 μM A-83-01/mTeSR1 + 100 ng/mL bFGF
# [13] = cell sample No. 394: 0.1 μM A-83-01/aFGF 10 ng/mL/ReproStem (bFGF-free)
smiles,measurement,setting,value
"Cc1cccc(-c2nn(C(=S)Nc3ccccc3)cc2-c2ccnc3ccccc23)n1 [A-83-01, 3-(6-methyl-2-pyridinyl)-N-phenyl-4-(4-quinolinyl)-1H-pyrazolo-1-carbothioamide]",α-fetoprotein (AFP) in culture supernatant,[1]; [12],"3,120 ng/mL"
same,α-fetoprotein (AFP) in culture supernatant,[1]; [13],"14,400 ng/mL"
same,effect on the extracellular signal regulated kinase,[2],little or no effect
same,effect on type I receptor for the osteogenic factor,[3],little or no effect
same,IC50,ALK 4,12 nM
same,phosphorylation of Smad2/3,[4],inhibits
same,TGF-β induced epithelial-mesenchymal transformation,[5],inhibits
same,AAT expression level,[6]; [12],240
same,AFP expression level,[6]; [12],"1,791"
same,ALB expression level,[6]; [12],"1,925"
same,DLK1 expression level,[6]; [12],404
same,TTR expression level,[6]; [12],"2,871"
same,AAT expression level,[6]; [13],"3,812"
same,AFP expression level,[6]; [13],"12,812"
same,AHSG expression level,[6]; [13],"14,079"
same,ALB expression level,[6]; [13],"45,698"
same,APOA4 expression level,[6]; [13],966
same,DLK1 expression level,[6]; [13],804
same,FABP1 expression level,[6]; [13],"3,034"
same,FGG expression level,[6]; [13],"10,138"
same,FOXA2 expression level,[6]; [13],0.19
same,HGF expression level,[6]; [13],11
same,HNF1A expression level,[6]; [13],0.88
same,HNF4A expression level,[6]; [13],0.39
same,KRT7 expression level,[6]; [13],37.5
same,NANOG expression level,[6]; [13],0.01
same,OCT3/4 (POU5F1) expression level,[6]; [13],0.07
same,RBP4 expression level,[6]; [13],"4,326"
same,SOX2 expression level,[6]; [13],0.08
same,SOX17 expression level,[6]; [13],0.03
same,TF expression level,[6]; [13],"9,126"
same,TTR expression level,[6]; [13],"9,113"
same,effect on p38 MAP kinase,p38 MAP kinase,little or no effect
same,α-fetoprotein (AFP) in culture supernatant,[7],324 ng/mL
same,AFP expression level (culture supernatant),"[8]; cell sample No. 634: 0.1 μM A-83-01/ReproStem (bFGF-free), collagen plate without Matrigel, 6 days after the seeding","2,890 ng/mL"
same,AFP expression level (culture supernatant),"[8]; cell sample No. 634: 0.1 μM A-83-01/ReproStem (bFGF-free), collagen plate without Matrigel, 14 days after the seeding","24,900 ng/mL"
same,AFP expression level (culture supernatant),"[8]; cell sample No. 637: 0.1 μM A-83-01/ReproStem (bFGF-free), collagen plate coated with Matrigel, 6 days after the seeding","3,040 ng/mL"
same,AFP expression level (culture supernatant),"[8]; cell sample No. 637: 0.1 μM A-83-01/ReproStem (bFGF-free), collagen plate coated with Matrigel, 14 days after the seeding","30,000 ng/mL"
same,AAT expression Ct value,[9],23.57
same,AFP expression Ct value,[9],17.21
same,ALB expression Ct value,[9],20.95
same,DLK1 expression Ct value,[9],18.15
same,KRT7 expression Ct value,[9],20.51
same,KRT19 expression Ct value,[9],22.05
same,TTR expression Ct value,[9],16.96
same,GAPDH expression Ct value,[9]; housekeeping gene,14.22
same,AFP yield (culture supernatant),[10]; 6 days after the seeding,"6,430 ng/mL"
same,AFP yield (culture supernatant),[10]; 13 days after the seeding,"30,900 ng/mL"
same,AFP expression level (culture supernatant),[11]; 8 days after the seeding,"5,540 ng/mL"
same,AFP expression level (culture supernatant),[11]; 13 days after the seeding,"2,320 ng/mL"
same,culture of rat iPS cells,rat iPS cells,allows uniform proliferation and prolonged culture of rat iPS cells without differentiation
